Experimental data reported in ChEMBL document CHEMBL5126518, “Quercetin derivatives: Drug design, development, and biological activities, a review” (Eur J Med Chem, 2022).
Converted amounts (≈) assume the structure as drawn.

Assays:
[1] = Antioxidant activity assessed as DPPH radical scavenging activity after 30 mins under dark condition; type: functional
[2] = system: MDA-MB-231; assay: Antiproliferative activity against human MDA-MB-231 cells assessed as cell growth inhibition measured after 72 hrs by MTT assay; type: functional, cell-based; conditions: MDA-MB-231, 72 h
[3] = system: Candida albicans; assay: Antifungal activity against Candida albicans 527/14 assessed as fungal growth inhibition measured after 24 hrs by microdilution assay; type: functional
[4] = system: Candida albicans; assay: Antifungal activity against Candida albicans 13/15 assessed as fungal growth inhibition measured after 24 hrs by microdilution assay; type: functional
[5] = Antioxidant activity assessed as DPPH radical scavenging activity up to 2 mM relative to control; type: functional
[6] = Metal chelating activity assessed as compound-Cu2+ complex formation by measuring binding energy
[7] = Antioxidant activity assessed as ABTS radical scavenging activity at 10 wt% incubated for 6 mins in presence of Si and PCL50 by UV spectrophotometer analysis relative to control; type: functional
[8] = Metal chelating activity assessed as compound-Fe2+ complex formation by measuring binding energy
[9] = Metal chelating activity assessed as Zn2+-compound complex formation by measuring binding energy
[10] = system: Candida albicans; assay: Antifungal activity against Candida albicans 475/15 assessed as fungal growth inhibition measured after 24 hrs by microdilution assay; type: functional
[11] = Non-competitive inhibition of xanthine oxidase (unknown origin) at 0.4 uM using xanthine as substrate preincubated with substrate for 1 min followed by compound addition by double beam spectrophotometer analysis relative to control
[12] = molecular target: Urease subunit alpha/Urease subunit beta (Helicobacter pylori (strain ATCC 700392 / 26695) (Campylobacterpylori), UniProt P69996); assay: Inhibition of Helicobacter pylori urease assessed as measuring ammonia production incubated for 1.5 hr by indophenol method; type: protein-complex assay
[13] = Antioxidant activity assessed as ABTS radical scavenging activity at 15 wt% incubated for 6 mins in presence of Si and PCL50 by UV spectrophotometer analysis relative to control; type: functional
[14] = Antioxidant activity assessed as ABTS radical scavenging activity at 5 wt% incubated for 6 mins in presence of Si and PCL50 by UV spectrophotometer analysis relative to control; type: functional
[15] = system: MCF7; assay: Induction of apoptosis in human MCF7 cells assessed as early apoptotic cells at 50 uM measured after 12 hrs by annexin V-FITC/propidium iodide staining based flow cytometry relative to control; type: functional
[16] = system: J774.A1; assay: Inhibition of LPS-induced NO production in mouse J774.A1 cells pre-incubated with compound for 1 hr followed by LPS stimulation for 24 hrs by ELISA assay; type: functional, cell-based
[17] = Competitive inhibition of xanthine oxidase (unknown origin) at 0.4 uM using xanthine as substrate preincubated with substrate for 1 min followed by compound addition by double beam spectrophotometer analysis relative to control
[18] = system: MCF7; assay: Antiproliferative activity against human MCF7 assessed as reduction in cell viability incubated for 48 hrs by MTT assay; type: functional
[19] = system: Candida albicans; assay: Antifungal activity against Candida albicans 10/15 assessed as fungal growth inhibition measured after 24 hrs by microdilution assay; type: functional
[20] = molecular target: UDP-galactopyranose mutase (Mycobacterium tuberculosis, UniProt P9WIQ1); assay: Binding affinity to Mycobacterium tuberculosis UGM assessed as dissociation constant by fluorescence polarization assay
[21] = molecular target: UDP-galactopyranose mutase (Mycobacterium tuberculosis) (UniProt P9WIQ1); assay: Inhibition of Mycobacterium tuberculosis UGM at 20 uM by HPLC inhibition assay relative to control
[22] = Inhibition of Escherichia coli topoisomerase 2 supercoiling activity by gel electrophoresis
[23] = Inhibition of Escherichia coli topoisomerase 4 decatenation activity by gel electrophoresis
[24] = system: Staphylococcus gallinarum; assay: Antibacterial activity against Staphylococcus gallinarum ATCC 9184 assessed as cell growth inhibition by agar dilution method; type: functional
[25] = system: Listeria monocytogenes; assay: Antibacterial activity against Listeria monocytogenes ATCC 15313 assessed as cell growth inhibition by agar dilution method; type: functional
[26] = system: Staphylococcus aureus; assay: Antibacterial activity against Staphylococcus aureus ATCC 12600 assessed as cell growth inhibition by agar dilution method; type: functional
[27] = system: Escherichia coli; assay: Antibacterial activity against Escherichia coli ATCC 25922 assessed as cell growth inhibition by agar dilution method; type: functional
[28] = molecular target: Type-1 angiotensin II receptor (Homo sapiens, UniProt P30556); assay: Inhibition of human AT1R expressed in HEK293 cells by non-linear regression analysis; type: cell-based
[29] = system: MDA-MB-231; assay: Antiproliferative activity against human MDA-MB-231 cells assessed as cell growth inhibition measured after 48 hrs by MTT assay relative to control; type: functional; set-up: scale not given: the % may be the effect or the level left
[30] = system: MDA-MB-231; assay: Antiproliferative activity against human MDA-MB-231 cells assessed as cell growth inhibition measured after 48 hrs by MTT assay; type: functional, cell-based; conditions: MDA-MB-231, 48 h
[31] = species on record: Mus musculus; assay: Anticancer activity against ApcMin harboring mouse model assessed as fold increase in p53 expression measured after 16 weeks by […]; type: functional, Neoplasm
[32] = system: HCT-116; assay: Antiproliferative activity against human HCT-116 cells assessed as cell growth inhibition by Z2 coulter counter based analysis; type: functional
[33] = system: HCT-116; assay: Anticancer activity against human HCT-116 cells xenografted in mouse assessed as fold decrease in tumor growth measured after 3 weeks by digital caliper method; type: functional
[34] = system: Enterobacter cloacae; assay: Antibacterial activity against Enterobacter cloacae assessed as cell growth inhibition incubated for 18 hrs by agar overlay method; type: functional
[35] = system: Proteus mirabilis; assay: Antibacterial activity against Proteus mirabilis assessed as cell growth inhibition incubated for 18 hrs by agar overlay method; type: functional
[36] = system: Escherichia coli; assay: Antibacterial activity against Escherichia coli ATCC 25922 assessed as cell growth inhibition incubated for 18 hrs by agar overlay method; type: functional
[37] = system: Bacillus cereus; assay: Antibacterial activity against Bacillus cereus NAS 596 assessed as cell growth inhibition incubated for 18 hrs by agar overlay method; type: functional
[38] = system: Staphylococcus aureus; assay: Antibacterial activity against Staphylococcus aureus ATCC 6538 assessed as cell growth inhibition incubated for 18 hrs by agar overlay method; type: functional
[39] = system: Bacillus subtilis; assay: Antibacterial activity against Bacillus subtilis ATCC 6633 assessed as cell growth inhibition incubated for 18 hrs by agar overlay method; type: functional
[40] = system: Klebsiella pneumoniae; assay: Antibacterial activity against Klebsiella pneumoniae ATCC 13883 assessed as cell growth inhibition incubated for 18 hrs by agar overlay method; type: functional
[41] = system: Heyndrickxia coagulans; assay: Antibacterial activity against Bacillus coagulans assessed as cell growth inhibition incubated for 18 hrs by agar overlay method; type: functional
[42] = system: LN-229; assay: Antiproliferative activity against human LN-229 cells assessed as reduction in cell viability incubated for 48 hrs by SRB assay; type: functional
[43] = system: U-87 MG; assay: Antiproliferative activity against human U87 cells assessed as reduction in cell viability incubated for 48 hrs by SRB assay; type: functional, U-87MG ATCC
[44] = Selectivity ratio of GI50 for cytotoxicity against human DU-145 cells to GI50 for cytotoxicity against human PC-3 cells by MTT assay; type: functional
[45] = molecular target: Bcl-2-like protein 1 (Homo sapiens) (UniProt Q07817); assay: Binding affinity to recombinant human Bcl-xL assessed as change in enthalpy by MM-PBSA method
[46] = system: PC-3; assay: Cytotoxicity against human PC-3 cells assessed as cell growth inhibition measured after 48 hrs by MTT assay; type: functional
[47] = Competitive inhibition of xanthine oxidase (unknown origin) at 0.05 uM using xanthine as substrate preincubated with substrate for 1 min followed by compound addition by double beam spectrophotometer analysis relative to control

Chain of UDP-galactopyranose mutase (Mycobacterium tuberculosis) (P9WIQ1 whole entry, looked up): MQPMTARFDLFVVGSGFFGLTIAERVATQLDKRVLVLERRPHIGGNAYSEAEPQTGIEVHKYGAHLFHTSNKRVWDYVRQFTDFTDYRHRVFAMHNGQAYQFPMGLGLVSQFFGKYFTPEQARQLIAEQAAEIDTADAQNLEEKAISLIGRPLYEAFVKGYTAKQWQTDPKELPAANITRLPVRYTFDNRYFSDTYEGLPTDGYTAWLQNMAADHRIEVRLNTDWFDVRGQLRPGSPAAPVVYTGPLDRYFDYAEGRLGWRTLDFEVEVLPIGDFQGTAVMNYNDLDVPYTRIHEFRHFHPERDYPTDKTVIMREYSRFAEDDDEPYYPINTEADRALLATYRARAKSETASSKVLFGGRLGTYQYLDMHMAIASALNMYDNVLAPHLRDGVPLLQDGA
Chain of UDP-galactopyranose mutase (P9WIQ1 whole entry): as the sequence (P9WIQ1 whole entry, looked up) above
Chain of Type-1 angiotensin II receptor (P30556 whole entry): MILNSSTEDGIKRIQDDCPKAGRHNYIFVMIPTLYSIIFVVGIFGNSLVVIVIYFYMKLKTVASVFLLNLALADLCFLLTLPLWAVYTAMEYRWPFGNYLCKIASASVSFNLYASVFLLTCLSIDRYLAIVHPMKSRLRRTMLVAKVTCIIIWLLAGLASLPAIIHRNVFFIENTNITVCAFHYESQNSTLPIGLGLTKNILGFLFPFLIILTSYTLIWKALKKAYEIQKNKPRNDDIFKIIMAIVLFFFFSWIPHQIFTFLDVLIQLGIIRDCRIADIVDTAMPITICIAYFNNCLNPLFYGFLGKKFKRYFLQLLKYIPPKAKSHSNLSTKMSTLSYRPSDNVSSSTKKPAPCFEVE
Chain of Bcl-2-like protein 1 (Homo sapiens) (Q07817 whole entry): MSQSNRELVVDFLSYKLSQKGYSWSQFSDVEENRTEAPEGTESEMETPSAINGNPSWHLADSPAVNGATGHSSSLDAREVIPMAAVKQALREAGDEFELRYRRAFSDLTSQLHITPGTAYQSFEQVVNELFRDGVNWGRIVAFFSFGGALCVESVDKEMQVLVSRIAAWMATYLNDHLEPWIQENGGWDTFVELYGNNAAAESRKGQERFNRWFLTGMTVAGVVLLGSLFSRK
Chain of Urease subunit alpha/Urease subunit beta (P69996 whole entry): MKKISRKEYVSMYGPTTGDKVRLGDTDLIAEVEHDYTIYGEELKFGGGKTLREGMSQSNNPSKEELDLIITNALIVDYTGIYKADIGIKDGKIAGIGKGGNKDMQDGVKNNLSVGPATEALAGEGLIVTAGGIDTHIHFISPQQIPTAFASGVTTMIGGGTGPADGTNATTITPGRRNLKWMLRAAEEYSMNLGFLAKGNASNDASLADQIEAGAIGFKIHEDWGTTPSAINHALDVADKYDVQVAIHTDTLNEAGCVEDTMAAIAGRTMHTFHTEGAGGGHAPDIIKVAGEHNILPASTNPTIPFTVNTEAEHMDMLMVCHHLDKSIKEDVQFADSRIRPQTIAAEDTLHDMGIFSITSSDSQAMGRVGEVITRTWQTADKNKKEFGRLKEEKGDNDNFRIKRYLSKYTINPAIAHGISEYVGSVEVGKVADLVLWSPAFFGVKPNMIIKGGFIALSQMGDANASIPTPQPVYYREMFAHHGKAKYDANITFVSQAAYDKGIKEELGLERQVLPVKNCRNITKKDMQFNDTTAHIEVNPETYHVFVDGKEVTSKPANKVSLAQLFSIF
Chain of Urease subunit alpha/Urease subunit beta (P14916 whole entry, further chain): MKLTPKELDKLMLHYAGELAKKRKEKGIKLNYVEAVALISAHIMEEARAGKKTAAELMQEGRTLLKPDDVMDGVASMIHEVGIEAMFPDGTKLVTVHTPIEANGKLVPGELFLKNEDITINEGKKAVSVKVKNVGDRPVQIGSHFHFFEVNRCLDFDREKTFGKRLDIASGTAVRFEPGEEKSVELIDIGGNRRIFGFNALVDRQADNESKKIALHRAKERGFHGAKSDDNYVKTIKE

## COc1cc(OC)c2c(=S)c(OC)c(-c3ccc(OC)c(OC)c3)oc2c1
[1]
  IC50: 360 µM

## C[C@@H]1O[C@@H](OC[C@H]2O[C@@H](Oc3c(-c4ccc(O)c(O)c4)oc4c(CN5CCCC5)c(O)c(CN5CCCC5)c(O)c4c3=O)[C@H](O)[C@@H](O)[C@@H]2O)[C@H](O)[C@H](O)[C@H]1O
[2]
  IC50: 7.57 µM

## O=c1c(O)c(-c2ccc(O)c(O)c2)oc2cc(O)cc(O)c12 [QUERCETIN]
[3]
  MIC: 37.5 µg/mL (≈ 124 µM)
[4]
  MIC: 37.5 µg/mL (≈ 124 µM)
[1]
  IC50: 4 µM
[5]
  Activity: 80%
[6]
  Activity: 918 kcal/mol
[7]
  Activity: 24.7%
[8]
  Activity: 694 kcal/mol
[9]
  Activity: 939 kcal/mol
[10]
  MIC: 37.5 µg/mL (≈ 124 µM)
[11]
  inhibition: 50%
[12]
  Ki: 9.34 µM
[13]
  Activity: 8.4%
[14]
  Activity: 15.6%
[15]
  Activity: 44.1%
[16]
  IC50: 49.1 µM
[17]
  inhibition: 50%
[18]
  Activity: 70.8%
[19]
  MIC: 37.5 µg/mL (≈ 124 µM)

## O=c1c(O)c(-c2ccc(O)c(O)c2)oc2c(CN3CCCCC3)c(O)cc(O)c12
[20]
  Kd: > 2000 µM
[21]
  inhibition: 23.2%

## COc1ccc(CNCc2c(O)cc(O)c3c(=O)cc(-c4ccc(O)c(O)c4)oc23)cc1
[22]
  IC50: 0.25 µg/mL (≈ 0.574 µM)
[23]
  IC50: 0.25 µg/mL (≈ 0.574 µM)

## CC(=O)OC[C@H]1OC(OC(C)=O)[C@H](NCc2c(O)cc(O)c3c(=O)cc(-c4ccc(O)c(O)c4)oc23)[C@@H](OC(C)=O)[C@@H]1OC(C)=O (stereo partly drawn)
[24]
  MIC: 0.05 µg/mL (≈ 0.0775 µM)
[22]
  IC50: 0.25 µg/mL (≈ 0.387 µM)
[25]
  MIC: 0.5 µg/mL (≈ 0.775 µM)
[26]
  MIC: 1 µg/mL (≈ 1.55 µM)
[27]
  MIC: 2 µg/mL (≈ 3.1 µM)
[23]
  IC50: 0.25 µg/mL (≈ 0.387 µM)

## O=c1c(O)c(-c2ccc(O)c(O)c2)oc2c(CN3CCCC3)c(O)cc(O)c12
[20]
  Kd: > 2000 µM
[21]
  inhibition: 47.8%

## COc1cc(OC)c2/c(=N/c3ccccc3)c(OC)c(-c3ccc(OC)c(OC)c3)oc2c1
[1]
  IC50: 490 µM

## C[C@@H]1O[C@@H](OC[C@H]2O[C@@H](Oc3c(-c4ccc(O)c(O)c4)oc4cc(O)cc(O)c4c3=O)[C@H](O)[C@@H](O)[C@@H]2O)[C@H](O)[C@H](O)[C@H]1O [RUTIN]
[3]
  MIC: 37.5 µg/mL (≈ 61.4 µM)
[4]
  MIC: 37.5 µg/mL (≈ 61.4 µM)
[10]
  MIC: 37.5 µg/mL (≈ 61.4 µM)
[19]
  MIC: 37.5 µg/mL (≈ 61.4 µM)

## CCCCc1nc(Cl)c(COC(=O)CCC(=O)Oc2ccc(-c3oc4cc(O)cc(O)c4c(=O)c3O)cc2O)n1Cc1ccc(-c2ccccc2-c2nnn[nH]2)cc1
[28]
  IC50: 0.14 µM

## COc1cc(OC)c2/c(=[S+]/C)c(OC)c(-c3ccc(OC)c(OC)c3)oc2c1.[I-]
[1]
  Activity: 0.05 mM
[29]
  Activity: 38.1%
[30]
  IC50: 1.84 µM

## COc1cc(-c2oc3ccccc3c(=O)c2O)cc(OC)c1OC
[31]
  fold change (FC): 3
[32]
  IC50: 3.3 µM
[33]
  fold change (FC): 1.5

## O=c1c(O)c(-c2ccccc2)oc2cc(O)cc(O)c12 [GALANGIN]
[34]
  MIC: 0.25 µg/mL (≈ 0.925 µM)
[35]
  MIC: 0.25 µg/mL (≈ 0.925 µM)
[36]
  MIC: 0.25 µg/mL (≈ 0.925 µM)
[37]
  MIC: 0.25 µg/mL (≈ 0.925 µM)
[38]
  MIC: 0.25 µg/mL (≈ 0.925 µM)
[39]
  MIC: 0.25 µg/mL (≈ 0.925 µM)
[40]
  MIC: 0.25 µg/mL (≈ 0.925 µM)
[41]
  MIC: 0.25 µg/mL (≈ 0.925 µM)

## CCCCc1nc(Cl)c(COC(=O)CCC(=O)Oc2cc(-c3oc4cc(O)cc(O)c4c(=O)c3O)ccc2O)n1Cc1ccc(-c2ccccc2-c2nnn[nH]2)cc1
[28]
  IC50: 0.14 µM
[42]
  Activity: 39%
[43]
  Activity: 38%

## O=c1c(O)c(-c2ccc(O)c(O)c2)oc2c(CN3CCOCC3)c(O)cc(O)c12
[21]
  inhibition: 100%

## Nc1c(-c2ccc(O)c(O)c2)oc2cc(O)cc(O)c2c1=O
[5]
  Activity: 80%

## COc1cc(OC)c2c(=O)c(OC)c(-c3ccc(OC)c(OC)c3)oc2c1
[1]
  IC50: 620 µM
[29]
  Activity: 43.7%
[30]
  IC50: 2.04 µM

## COc1cc(-c2oc3cc(O)cc(O)c3c(=O)c2O[C@@H]2O[C@H](C(=O)[O-])[C@@H](O)[C@H](O)[C@H]2O)ccc1O.[Na+]
[18]
  Activity: 49.8%

## O=C(O)CC[C@H](NC(=O)Oc1ccc(-c2oc3cc(O)cc(O)c3c(=O)c2O)cc1O)C(=O)O
[44]
  RatioGI50: 17
[45]
  deltaH: 47.2 kcal/mol
[46]
  GI50: 6 µM

## O=c1cc(-c2ccc(O)c(O)c2)oc2cc(O)cc(O)c12 [LUTEOLIN]
[3]
  MIC: 37.5 µg/mL (≈ 131 µM)
[4]
  MIC: 37.5 µg/mL (≈ 131 µM)
[10]
  MIC: 37.5 µg/mL (≈ 131 µM)
[2]
  IC50: 7.29 µM
[19]
  MIC: 37.5 µg/mL (≈ 131 µM)

## COc1cc(OC)c2/c(=N/c3cc(OC)c(OC)c(OC)c3)c(OC)c(-c3ccc(OC)c(OC)c3)oc2c1
[1]
  IC50: 220 µM

## O=c1c(O)c(-c2ccc(O)c(O)c2)oc2c(CN3CCSCC3)c(O)cc(O)c12
[21]
  inhibition: 57.9%

## O=c1oc2c(O)ccc(-c3oc4cc(O)cc(O)c4c(=O)c3O)c2s1
[47]
  inhibition: 50%

## COc1cc(OC)c2/c(=N/N)c(OC)c(-c3ccc(OC)c(OC)c3)oc2c1
[1]
  IC50: 40 µM
